Assay results reported in PubChem BioAssay (NCI).
Several values for one entry are separate records, joined by “and”; a condition that tells them apart may be missing. Identical values can stand only once.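 Assay format: 96-well plates, 48-hour exposure. GI50 is the concentration that inhibits growth by half. Definition used: TGI = concentration required for complete inhibition of growth.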

Key:
Test in all cases: NCI tumour cell line growth inhibition, 48 h
ACHN renal = tested on: ACHN renal
HOP-62 NSCLC = tested on: HOP-62 NSCLC
HT29 colon = tested on: HT29 colon
KM12 colon = tested on: KM12 colon
MALME-3M melanoma = tested on: MALME-3M melanoma
MDA-MB-231 breast = tested on: MDA-MB-231 breast
SK-OV-3 ovarian = tested on: SK-OV-3 ovarian
UACC-257 melanoma = tested on: UACC-257 melanoma
UACC-62 melanoma = tested on: UACC-62 melanoma
UO-31 renal = tested on: UO-31 renal

Row | SMILES | TGI (ACHN renal) | TGI (HOP-62 NSCLC) | TGI (HT29 colon) | TGI (KM12 colon) | TGI (MALME-3M melanoma) | TGI (MDA-MB-231 breast) [µM] | TGI (SK-OV-3 ovarian) | TGI (UACC-257 melanoma) | TGI (UACC-62 melanoma) | TGI (UO-31 renal) | GI50 (HOP-62 NSCLC) [µM] | GI50 (KM12 colon) [µM] | GI50 (MALME-3M melanoma) [µM] | GI50 (MDA-MB-231 breast) [µM] | GI50 (SK-OV-3 ovarian) | GI50 (UACC-257 melanoma) [µM] | GI50 (UACC-62 melanoma) [µM] | GI50 (UO-31 renal) [µM] | GI50 (ACHN renal)
1 | O=C(N/N=C(/COc1ccccc1)N=Cc1cccnc1)c1ccncc1 | > 100 µM | > 100 µM | > 100 µM | > 100 µM | > 100 µM | > 100 | > 100 µM | > 100 µM | > 100 µM | – | – | – | – | – | – | – | – | – | –
2 | Cn1cc(-c2csc(-c3cn(C)c4ccccc34)n2)c2ccccc21 | > 100 µM | 45.7 µM | > 100 µM | > 100 µM | 70 µM | 60.1 | – | > 100 µM | > 100 µM | > 100 µM | – | – | – | – | – | – | – | – | –
3 | Cc1cnc2[nH]c(-c3ccc4ccccc4c3)cc(=O)c2c1 | > 100 µM | > 100 µM | > 100 µM | > 100 µM | – | – | > 100 µM | – | > 100 µM | > 100 µM | – | – | – | – | – | – | – | – | –
4 | CC1(C)[C@@H]2C[C@H]1c1cnc(-c3ccccn3)cc1C2CCCCC[C@@H]1c2cc(-c3ccccn3)ncc2[C@@H]2C[C@H]1C2(C)C (some centres not stated) | > 100 µM | > 69.2 µM | > 33.3 µM | > 100 µM | > 100 µM | 89 | > 100 µM | – | > 34 µM | > 22.2 µM | – | – | – | – | – | – | – | – | –
5 | Cc1ccc(C(=O)N/N=C(\N=Nc2ccc(C(=O)O)cc2)c2ccc(N(CCC#N)CCC#N)cc2C)cc1 | > 100 µM | > 100 µM | > 100 µM | > 100 µM | – | > 100 | > 100 µM | > 100 µM | – | > 100 µM | – | – | – | – | – | – | – | – | –
6 | Cc1[nH]c(=O)nc(NNCc2ccc(Cl)cc2)c1C(=O)Nc1ccc(Cl)cc1 | – | > 100 µM | – | > 100 µM | > 100 µM | > 100 | > 100 µM | > 100 µM | > 100 µM | > 100 µM | – | – | – | – | – | – | – | – | –
7 | CC(Oc1ccc(OCC2CCCCC2)cc1)C(=O)NCc1ccco1 (configuration not stated) | > 100 µM | – | 46.6 µM | > 100 µM | 58.7 µM | – | > 100 µM | 70.4 µM | > 100 µM | 92.3 µM | – | – | – | – | – | – | – | – | –
8 | CC(=O)N(C(C)=O)c1cc2c3c(c1)CCCN3CCC2 | > 10 µM | > 10 µM | > 10 µM | > 10 µM | > 10 µM | > 10 | > 10 µM | > 10 µM | > 10 µM | – | – | – | – | – | – | – | – | – | –
9 | COc1ccc2nc3cccc([N+](=O)[O-])c3c(NCCCO)c2c1 | – | 0.0157 µM and 0.0193 µM | 0.00183 µM | 0.0146 µM and 0.0141 µM | 0.00344 µM and 0.0202 µM | – | 0.184 µM and 0.563 µM | 0.0166 µM | 0.0151 µM and 0.0185 µM | 0.00749 µM and 0.0237 µM | 0.00282 | 0.00183 | 0.00116 | 2.26 | 0.0375 µM and 0.0452 µM | 0.00379 | 0.00294 | 0.0017 | –
10 | O=c1oc2c(Cl)cc(Cl)cc2cc1C1=CSC2=NCCN12 | > 100 µM | > 100 µM | > 100 µM | > 100 µM | – | > 100 | > 100 µM | > 100 µM | > 100 µM | > 100 µM | – | – | – | – | – | – | – | – | –
11 | COc1cc(C2c3cc4c(cc3[C@@H](NCCN3CCOCC3)C3COC(=O)[C@H]23)OCO4)cc(OC)c1O (some centres not stated) | 1.34 µM and 2.84 µM | 2.71 µM and 3.8 µM | 18.1 µM and > 17.5 µM | 12.1 µM and > 17.5 µM | 11.2 µM and 14.2 µM | – | 5.89 µM and 11.3 µM | 32.9 µM and > 17.5 µM | 4.99 µM and 6.06 µM | 5.13 µM and 6.38 µM | – | – | – | – | 1.49 µM and 3.36 µM | – | – | – | 0.264 µM and 0.679 µM
12 | CCOC(=O)NN(C(=O)OCC)c1c(C)cc(C)cc1C | – | – | > 100 µM | > 100 µM | > 100 µM | > 100 | > 100 µM | > 100 µM | > 100 µM | > 100 µM | – | – | – | – | – | – | – | – | –
13 | CNC1(C(=O)O)CC1 | > 100 µM | > 100 µM | > 100 µM | > 100 µM | > 100 µM | > 100 | – | > 100 µM | > 100 µM | – | – | – | – | – | – | – | – | – | –
14 | CCOC(=O)c1nc2ccc(C(F)(F)F)cc2nc1Oc1ccc(C(=O)OC)cc1 | > 100 µM | 74.8 µM | > 100 µM | > 100 µM | – | > 100 | > 100 µM | > 100 µM | > 100 µM | > 100 µM | – | – | – | – | – | – | – | – | –
15 | CCCCCCCCCCCCCCCCCCOCC(O)COP(=O)(O)OCC1OC(n2ccc(N)nc2=O)C(O)C1O (configuration not stated) | > 100 µM | 48.9 µM | 50.7 µM | 41 µM | > 100 µM | 64.7 | > 100 µM | > 100 µM | 70.2 µM | – | – | – | – | – | – | – | – | – | –
16 | OC1CSc2nc3ccccc3n2C1 (configuration not stated) | > 100 µM | – | > 100 µM | > 100 µM | > 100 µM | > 100 | > 100 µM | > 100 µM | > 100 µM | > 100 µM | – | – | – | – | – | – | – | – | –
17 | Nc1nc(-c2ccco2)cc(-c2ccc(CO)o2)n1 | > 100 µM | > 100 µM | > 100 µM | > 100 µM | > 100 µM | – | – | – | > 100 µM | > 100 µM | – | – | – | – | – | – | – | – | –
18 | ON=C(CC(O)(C(F)(F)Cl)C(F)(F)Cl)CC(O)(C(F)(F)Cl)C(F)(F)Cl | > 10 µM | 9.78 µM | > 10 µM | > 10 µM | > 10 µM | – | > 10 µM | > 10 µM | > 10 µM | > 10 µM | – | – | – | – | – | – | – | – | –
19 | N#Cc1c(-c2ccccc2)c(CN2CCCCC2)c(=O)n2c1[nH]c1ccccc12 | > 100 µM | 91.5 µM | – | > 100 µM | > 100 µM | > 100 | > 100 µM | > 100 µM | – | > 100 µM | – | – | – | – | – | – | – | – | –
20 | CC1=C(C(=O)N[C@@H](CC(C)C)C(=O)O)N2C(=O)[C@@H](NC(=O)C(N)c3ccccc3)[C@H]2SC1 (some centres not stated) | > 100 µM | – | – | > 100 µM | > 100 µM | > 100 | – | > 100 µM | > 100 µM | – | – | – | – | – | – | – | – | – | –
21 | COc1ccc(/C=C2\C[C@H]3[C@@H]4CCC5=CC(=O)CC[C@]5(C)[C@H]4CC[C@]3(C)C2=O)cc1OC | > 100 µM | > 100 µM | > 100 µM | > 100 µM | > 100 µM | – | > 100 µM | 68.4 µM | > 100 µM | 6.85 µM | – | – | – | – | – | – | – | – | –
22 | COc1cccc(/C=C2\S/C(=N/Nc3nc(-c4ccc([N+](=O)[O-])cc4)cs3)NC2=O)c1O | 32.3 µM | 34.1 µM | 52.6 µM | 26.9 µM | 42.3 µM | 41.7 | 79.8 µM | 71.2 µM | – | 28.9 µM | – | – | – | – | – | – | – | – | –
23 | Cc1ccc(N(C)S(=O)(=O)c2ccccc2[N+](=O)[O-])cc1 | > 100 µM | > 100 µM | > 100 µM | > 100 µM | > 100 µM | > 100 | – | > 100 µM | – | > 100 µM | – | – | – | – | – | – | – | – | –
